Data published in patent US20090111736A1, “Orally-Absorbed Solid Dose Formulation for Vancomycin” (SRI International, priority 2007, published 2009).
Values joined by “and” are separate entries in the source; they are usually repeats but may differ in a detail not shown here. Identical values can stand only once. Counter-ions that a name gives are not always drawn.

System: rat jejunum
Experiment: In vitro mucosal-to-serosal vancomycin transport, modified Ussing chambers, jejunum
Format: in vitro ADME
Settings: for Ave. Cumulative Amt VCM Released: jejunum
Source text: We investigated regional variation in permeation of vancomycin (VCM) across various segments of rat intestine and colon in vitro by mounting isolated segments of rat intestine and colon between horizontal modified Ussing chambers. The effects of drug concentration and of addition of a p-glycoprotein inhibitor or permeation enhancer(s) as formulation additives on VCM permeation were also studied in vitro using segments of rat jejunum.
Methods: A modified Ussing system (Easy mount Ussing system, Physiological Instruments Inc., CA, Item # EM-CSYS-8) with eight sets of chambers was used for all in vitro studies; each set consisted of two parallel diffusion chambers, a heating block for temperature control, needle valves for gas flow adjustment and gas mixing, and Ag/AgCl voltage and current electrodes for measuring transepithelial voltage and for passing current.
Harvesting of required small intestinal or colon segments of a male rat was performed using experimental procedures described in the literature (Gotoh et al., J Biomol Screen (2005) 10:517-23). The harvested segments of small intestine or colon were mounted on sliders placed between the two horizontal chambers of a modified Ussing system.
VCM was dissolved in HEPES buffer pH 7.4 (Table 1) previously saturated with 100% O2 or HEPES buffer containing additives selected from permeation enhancer(s) and/or an efflux transport inhibitor (Table 2) to obtain predetermined concentrations of drug and additive(s).
Drug transport across epithelial membranes of harvested rat small intestine and colon segments, in mucosal-to-serosal (M-to-S) direction, was studied using modified Ussing Chambers. Aliquots of HEPES buffer (5 ml) were initially added to both the mucosal and serosal chambers and allowed to equilibrate for 20 minutes. The HEPES buffer in the mucosal chamber was replaced by a study sample containing VCM alone or VCM and selected additive(s) in HEPES buffer, e.g., 5 mg/mL of VCM dissolved in HEPES buffer containing 10% w/w Labrasol®. Aliquots of 0.5 mL buffer solutions were removed periodically from serosal chambers, and replaced with equal volumes of fresh warm (37±2° C.) HEPES buffer previously saturated with 100% O2. […]
Changes in transepithelial short-circuit current (in micro-Amps) and membrane resistance (in Ohms) as a function of time were monitored continuously during in vitro studies to serve as indicators of tissue viability and drug permeability, respectively. The buffer samples from the receptor chambers were analyzed for VCM content on a high pressure liquid chromatograph (HPLC; Hewlett Packard Model 1100 series).
The analysis of VCM samples was performed using a reverse phase gradient HPLC method, with a Hypersil BDS C18 column, 5 μm, 150×4.6 mm., mobile phase consisting of 5 mM potassium phosphate monobasic in water (pH 3) as solvent A and acetonitrile as solvent B at a flow rate of 1 ml/min (Farin et al., J Pharm Biomed Anal (1998) 18:367-72). The eluant was monitored by a UV/diode array detector at 280 nm.
To compare data obtained from different in vitro experiments, the apparent permeability coefficients were calculated using the equation: […]
Where dQ/dt is the linear appearance rate of mass in receiver compartment, C0 is the initial solute concentration in donor compartment, and A is the surface area (Luo et al., Drug Metab Dispos (2002) 30:763-70).

CN[C@H](CC(C)C)C(=O)N[C@H]1C(=O)N[C@@H](CC(N)=O)C(=O)N[C@H]2C(=O)N[C@H]3C(=O)N[C@H](C(=O)N[C@H](C(=O)O)c4cc(O)cc(O)c4-c4cc3ccc4O)[C@H](O)c3ccc(c(Cl)c3)Oc3cc2cc(c3O[C@@H]2O[C@H](CO)[C@@H](O)[C@H](O)[C@H]2O[C@H]2C[C@](C)(N)[C@H](O)[C@H](C)O2)Oc2ccc(cc2Cl)[C@H]1O [Vancomycin hydrochloride]
increase in M-to-S transport of VCM (0.15 mM Quinidine added to the serosal chamber): 3 fold
effect on M-to-S transport of VCM (0.15 mM Quinidine in mucosal chamber): increased M-to-S transport of VCM, but to a lesser extent
effect on in vitro permeation of VCM (1.0 mM sodium decanoate in mucosal chamber): much greater effect
effect on in vitro permeation of VCM (1.0 mM sodium decanoate in serosal chamber): minimal effect
effect on M-to-S transport of VCM (bile salts at 20% w/w in mucosal chamber): greatly enhanced M-to-S transport
Ave. Cumulative Amt VCM Released (1.0 mM sodium decanoate in mucosal chamber, 0.5 hr): 2.24 ± 3.17 µg
Ave. Cumulative Amt VCM Released (1.0 mM sodium decanoate in mucosal chamber, 1.0 hr): 4.52 ± 6.39 µg
Ave. Cumulative Amt VCM Released (1.0 mM sodium decanoate in mucosal chamber, 1.5 hr): 11.11 ± 10.44 µg
Ave. Cumulative Amt VCM Released (1.0 mM sodium decanoate in mucosal chamber, 2.0 hr): 19.25 ± 14.42 µg
Ave. Cumulative Amt VCM Released (1.0 mM sodium decanoate in mucosal chamber, 2.5 hr): 34.10 ± 8.84 µg
Ave. Cumulative Amt VCM Released (1.0 mM sodium decanoate in serosal chamber, 0.5 hr): 0.00 ± 0.00 µg
Ave. Cumulative Amt VCM Released (1.0 mM sodium decanoate in serosal chamber, 1.0 hr): 0.91 ± 1.28 µg
Ave. Cumulative Amt VCM Released (1.0 mM sodium decanoate in serosal chamber, 1.5 hr): 3.91 ± 0.70 µg
Ave. Cumulative Amt VCM Released (1.0 mM sodium decanoate in serosal chamber, 2.0 hr): 6.91 ± 0.41 µg
Ave. Cumulative Amt VCM Released (1.0 mM sodium decanoate in serosal chamber, 2.5 hr): 10.60 ± 0.28 µg
Ave. Cumulative Amt VCM Released (5 mg/ml vancomycin in HEPES buffer without enhancer, 0.5 hr, hydrochloride): 0.00 ± 0.00 µg and 0.00 ± 0.0 µg
Ave. Cumulative Amt VCM Released (5 mg/ml vancomycin in HEPES buffer without enhancer, 1.0 hr): 1.06 ± 0.95 µg
Ave. Cumulative Amt VCM Released (5 mg/ml vancomycin in HEPES buffer without enhancer, 1.5 hr): 3.73 ± 0.61 µg
Ave. Cumulative Amt VCM Released (5 mg/ml vancomycin in HEPES buffer without enhancer, 2.0 hr): 6.94 ± 1.07 µg
Ave. Cumulative Amt VCM Released (5 mg/ml vancomycin in HEPES buffer without enhancer, 2.5 hr): 11.08 ± 1.08 µg
Ave. Cumulative Amt VCM Released (5 mg/ml, 0.15 mM Quinidine in mucosal chamber, 0.5 hr): 0.00 ± 0.00 µg
Ave. Cumulative Amt VCM Released (5 mg/ml, 0.15 mM Quinidine in mucosal chamber, 1.0 hr): 1.72 ± 2.44 µg
Ave. Cumulative Amt VCM Released (5 mg/ml, 0.15 mM Quinidine in mucosal chamber, 1.5 hr): 4.91 ± 3.98 µg
Ave. Cumulative Amt VCM Released (5 mg/ml, 0.15 mM Quinidine in mucosal chamber, 2.0 hr): 9.00 ± 5.72 µg
Ave. Cumulative Amt VCM Released (5 mg/ml, 0.15 mM Quinidine in mucosal chamber, 2.5 hr): 14.14 ± 6.95 µg
Ave. Cumulative Amt VCM Released (5 mg/ml, 0.15 mM Quinidine in serosal chamber, 0.5 hr): 1.87 ± 0.57 µg
Ave. Cumulative Amt VCM Released (5 mg/ml, 0.15 mM Quinidine in serosal chamber, 1.0 hr): 8.27 ± 3.06 µg
Ave. Cumulative Amt VCM Released (5 mg/ml, 0.15 mM Quinidine in serosal chamber, 1.5 hr): 16.77 ± 7.45 µg
Ave. Cumulative Amt VCM Released (5 mg/ml, 0.15 mM Quinidine in serosal chamber, 2.0 hr): 26.75 ± 11.57 µg
Ave. Cumulative Amt VCM Released (5 mg/ml, 0.15 mM Quinidine in serosal chamber, 2.5 hr): 38.96 ± 12.27 µg
Ave. Cumulative Amt VCM Released (5 mg/ml, slider area 0.5 cm^2, 20% w/w bile salt, 0.5 hr): 0.00 ± 0.00 µg
Ave. Cumulative Amt VCM Released (5 mg/ml, slider area 0.5 cm^2, 20% w/w bile salt, 1.0 hr): 5.40 ± 2.26 µg
Ave. Cumulative Amt VCM Released (5 mg/ml, slider area 0.5 cm^2, 20% w/w bile salt, 1.5 hr): 18.19 ± 7.43 µg
Ave. Cumulative Amt VCM Released (5 mg/ml, slider area 0.5 cm^2, 20% w/w bile salt, 2.0 hr): 37.58 ± 9.54 µg
Ave. Cumulative Amt VCM Released (5 mg/ml, slider area 0.5 cm^2, 20% w/w bile salt, 2.5 hr): 66.39 ± 18.91 µg
Ave. Cumulative Amt VCM Released (5 mg/ml, slider area 0.5 cm^2, No Q (quinidine study), 0.5 hr): 0.00 ± 0.00 µg
Ave. Cumulative Amt VCM Released (5 mg/ml, slider area 0.5 cm^2, No Q (quinidine study), 1.0 hr): 1.66 ± 0.43 µg
Ave. Cumulative Amt VCM Released (5 mg/ml, slider area 0.5 cm^2, No Q (quinidine study), 1.5 hr): 4.34 ± 1.57 µg
Ave. Cumulative Amt VCM Released (5 mg/ml, slider area 0.5 cm^2, No Q (quinidine study), 2.0 hr): 8.73 ± 2.92 µg
Ave. Cumulative Amt VCM Released (5 mg/ml, slider area 0.5 cm^2, No Q (quinidine study), 2.5 hr): 14.24 ± 4.56 µg
Ave. Cumulative Amt VCM Released (10 mg/ml in HEPES buffer without enhancer, 0.5 hr): 0.00 ± 0.0 µg
Ave. Cumulative Amt VCM Released (10 mg/ml in HEPES buffer without enhancer, 1.0 hr): 2.76 ± 0.69 µg
Ave. Cumulative Amt VCM Released (10 mg/ml in HEPES buffer without enhancer, 1.5 hr): 6.88 ± 0.98 µg
Ave. Cumulative Amt VCM Released (10 mg/ml in HEPES buffer without enhancer, 2.0 hr): 12.86 ± 1.23 µg
Ave. Cumulative Amt VCM Released (10 mg/ml in HEPES buffer without enhancer, 2.5 hr): 20.77 ± 1.90 µg
Ave. Cumulative Amt VCM Released (25 mg/ml in HEPES buffer without enhancer, 0.5 hr): 0.00 ± 0.0 µg
Ave. Cumulative Amt VCM Released (25 mg/ml in HEPES buffer without enhancer, 1.0 hr): 2.90 ± 1.82 µg
Ave. Cumulative Amt VCM Released (25 mg/ml in HEPES buffer without enhancer, 1.5 hr): 7.99 ± 5.71 µg
Ave. Cumulative Amt VCM Released (25 mg/ml in HEPES buffer without enhancer, 2.0 hr): 21.56 ± 3.84 µg
Ave. Cumulative Amt VCM Released (25 mg/ml in HEPES buffer without enhancer, 2.5 hr): 50.91 ± 6.58 µg
